Test results published in the supplement of paper PMC10307832.

Key:
Test in all cases: relative viability (nuclei count vs DMSO), 5 days (fraction); higher = more cells survive
201T = test system: 201T
In short: (§1)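 One day after seeding in 1536-well plates, lung cancer cell lines were dosed by pin tool. Dosing was either single-drug or a fixed anchor-drug dose plus five library-drug doses (not always all listed) in √10 steps. After 5 days, nuclei were stained in one fix-and-stain step and counted on 4× images, and relative viability is the nuclei count of treated wells over that of vehicle wells, given as the median of duplicate plates.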

NCI-H1650 = test system: NCI-H1650
In short: as §1

NCI-H460 = test system: NCI-H460
In short: as §1

CAL-12T = test system: CAL-12T
In short: as §1

H3255 = test system: H3255
In short: as §1

NCI-H1651 = test system: NCI-H1651
In short: as §1

NCI-H1792 = test system: NCI-H1792
In short: as §1

NCI-H1915 = test system: NCI-H1915
In short: as §1

NCI-H650 = test system: NCI-H650
In short: as §1

NCI-H1944 = test system: NCI-H1944
In short: as §1

BEN = test system: BEN
In short: as §1

ABC-1 = test system: ABC-1
In short: as §1

NCI-H2023 = test system: NCI-H2023
In short: as §1

NCI-H520 = test system: NCI-H520
In short: as §1

NCI-H661 = test system: NCI-H661
In short: as §1

LC-2-ad = test system: LC-2-ad
In short: as §1

PC-3 [JPC-3] = test system: PC-3 [JPC-3]
In short: as §1

NCI-H727 = test system: NCI-H727
In short: as §1

NCI-H2087 = test system: NCI-H2087
In short: as §1

NCI-H596 = test system: NCI-H596
In short: as §1

LCLC-97TM1 = test system: LCLC-97TM1
In short: as §1

A-427 = test system: A-427
In short: as §1

## NC(=O)Nc1cc(-c2cccc(F)c2)sc1C(=O)N[C@H]1CCCNC1 [AZD7762] + CS(=O)(=O)CCNCc1ccc(-c2ccc3ncnc(Nc4ccc(OCc5cccc(F)c5)c(Cl)c4)c3c2)o1 [Lapatinib] (partner 2 µM)
201T; first compound 0.01 µM
  relative viability: 1.03
201T; first compound 0.03162 µM
  relative viability: 0.99
201T; first compound 0.1 µM
  relative viability: 1.03
201T; first compound 0.3162 µM
  relative viability: 1.15
201T; first compound 1 µM
  relative viability: 1.15
NCI-H1650; first compound 0.01 µM
  relative viability: 0.747
NCI-H1650; first compound 0.03162 µM
  relative viability: 0.852
NCI-H1650; first compound 0.1 µM
  relative viability: 0.896
NCI-H1650; first compound 0.3162 µM
  relative viability: 0.434
NCI-H1650; first compound 1 µM
  relative viability: 0.167
NCI-H460; first compound 0.01 µM
  relative viability: 1.07
NCI-H460; first compound 0.03162 µM
  relative viability: 0.972
NCI-H460; first compound 0.1 µM
  relative viability: 0.824
NCI-H460; first compound 0.3162 µM
  relative viability: 0.467
NCI-H460; first compound 1 µM
  relative viability: 0.0597
CAL-12T; first compound 0.01 µM
  relative viability: 0.781
CAL-12T; first compound 0.03162 µM
  relative viability: 0.649
CAL-12T; first compound 0.1 µM
  relative viability: 0.649
CAL-12T; first compound 0.3162 µM
  relative viability: 0.703
CAL-12T; first compound 1 µM
  relative viability: 0.314
H3255; first compound 0.01 µM
  relative viability: 0.316
H3255; first compound 0.03162 µM
  relative viability: 0.256
H3255; first compound 0.1 µM
  relative viability: 0.244
H3255; first compound 0.3162 µM
  relative viability: 0.264
H3255; first compound 1 µM
  relative viability: 0.244
NCI-H1651; first compound 0.01 µM
  relative viability: 0.93
NCI-H1651; first compound 0.03162 µM
  relative viability: 0.832
NCI-H1651; first compound 0.1 µM
  relative viability: 0.909
NCI-H1651; first compound 0.3162 µM
  relative viability: 0.607
NCI-H1651; first compound 1 µM
  relative viability: 0.195
NCI-H1792; first compound 0.01 µM
  relative viability: 0.965
NCI-H1792; first compound 0.03162 µM
  relative viability: 0.911
NCI-H1792; first compound 0.1 µM
  relative viability: 0.925
NCI-H1792; first compound 0.3162 µM
  relative viability: 0.945
NCI-H1792; first compound 1 µM
  relative viability: 1.05
NCI-H1915; first compound 0.01 µM
  relative viability: 1
NCI-H1915; first compound 0.03162 µM
  relative viability: 1
NCI-H1915; first compound 0.1 µM
  relative viability: 0.943
NCI-H1915; first compound 0.3162 µM
  relative viability: 0.909
NCI-H1915; first compound 1 µM
  relative viability: 0.933
NCI-H650; first compound 0.01 µM
  relative viability: 1.04
NCI-H650; first compound 0.03162 µM
  relative viability: 1.11
NCI-H650; first compound 0.1 µM
  relative viability: 0.813
NCI-H650; first compound 0.3162 µM
  relative viability: 0.747
NCI-H650; first compound 1 µM
  relative viability: 0.827
NCI-H1944; first compound 0.01 µM
  relative viability: 0.977
NCI-H1944; first compound 0.03162 µM
  relative viability: 0.876
NCI-H1944; first compound 0.1 µM
  relative viability: 1.01
NCI-H1944; first compound 0.3162 µM
  relative viability: 0.846
NCI-H1944; first compound 1 µM
  relative viability: 1.01
BEN; first compound 0.01 µM
  relative viability: 0.788
BEN; first compound 0.03162 µM
  relative viability: 0.623
BEN; first compound 0.1 µM
  relative viability: 0.566
BEN; first compound 0.3162 µM
  relative viability: 0.833
BEN; first compound 1 µM
  relative viability: 0.488
ABC-1; first compound 0.01 µM
  relative viability: 1.46
ABC-1; first compound 0.03162 µM
  relative viability: 1.33
ABC-1; first compound 0.1 µM
  relative viability: 0.983
ABC-1; first compound 0.3162 µM
  relative viability: 1.2
ABC-1; first compound 1 µM
  relative viability: 0.981
NCI-H2023; first compound 0.01 µM
  relative viability: 0.601
NCI-H2023; first compound 0.03162 µM
  relative viability: 0.758
NCI-H2023; first compound 0.1 µM
  relative viability: 0.366
NCI-H2023; first compound 0.3162 µM
  relative viability: 0.198
NCI-H2023; first compound 1 µM
  relative viability: 0.102
NCI-H520; first compound 0.01 µM
  relative viability: 0.825
NCI-H520; first compound 0.03162 µM
  relative viability: 0.864
NCI-H520; first compound 0.1 µM
  relative viability: 0.735
NCI-H520; first compound 0.3162 µM
  relative viability: 0.304
NCI-H520; first compound 1 µM
  relative viability: 0.254
NCI-H661; first compound 0.01 µM
  relative viability: 0.6
NCI-H661; first compound 0.03162 µM
  relative viability: 0.546
NCI-H661; first compound 0.1 µM
  relative viability: 0.512
NCI-H661; first compound 0.3162 µM
  relative viability: 0.405
NCI-H661; first compound 1 µM
  relative viability: 0.28
LC-2-ad; first compound 0.01 µM
  relative viability: 1.05
LC-2-ad; first compound 0.03162 µM
  relative viability: 1.04
LC-2-ad; first compound 0.1 µM
  relative viability: 0.47
LC-2-ad; first compound 0.3162 µM
  relative viability: 0.392
LC-2-ad; first compound 1 µM
  relative viability: 0.258
PC-3 [JPC-3]; first compound 0.01 µM
  relative viability: 0.473
PC-3 [JPC-3]; first compound 0.03162 µM
  relative viability: 0.447
PC-3 [JPC-3]; first compound 0.1 µM
  relative viability: 0.372
PC-3 [JPC-3]; first compound 0.3162 µM
  relative viability: 0.46
PC-3 [JPC-3]; first compound 1 µM
  relative viability: 0.432
NCI-H727; first compound 0.01 µM
  relative viability: 0.891
NCI-H727; first compound 0.03162 µM
  relative viability: 0.985
NCI-H727; first compound 0.1 µM
  relative viability: 0.578
NCI-H727; first compound 0.3162 µM
  relative viability: 0.36
NCI-H727; first compound 1 µM
  relative viability: 0.271
NCI-H2087; first compound 0.01 µM
  relative viability: 1.23
NCI-H2087; first compound 0.03162 µM
  relative viability: 1.01
NCI-H2087; first compound 0.1 µM
  relative viability: 1.01
NCI-H2087; first compound 0.3162 µM
  relative viability: 1.24
NCI-H2087; first compound 1 µM
  relative viability: 1.16
NCI-H596; first compound 0.01 µM
  relative viability: 1.11
NCI-H596; first compound 0.03162 µM
  relative viability: 1.01
NCI-H596; first compound 0.1 µM
  relative viability: 1.13
NCI-H596; first compound 0.3162 µM
  relative viability: 1.11
NCI-H596; first compound 1 µM
  relative viability: 0.891
LCLC-97TM1; first compound 0.01 µM
  relative viability: 0.834
LCLC-97TM1; first compound 0.03162 µM
  relative viability: 1.13
LCLC-97TM1; first compound 0.1 µM
  relative viability: 0.821
LCLC-97TM1; first compound 0.3162 µM
  relative viability: 0.555
LCLC-97TM1; first compound 1 µM
  relative viability: 0.609
A-427; first compound 0.01 µM
  relative viability: 1.09
A-427; first compound 0.03162 µM
  relative viability: 1.05
A-427; first compound 0.1 µM
  relative viability: 1.07
A-427; first compound 0.3162 µM
  relative viability: 0.938
A-427; first compound 1 µM
  relative viability: 0.716
